The values below come from patent US20230348987A1, “METHODS AND COMPOSITIONS FOR TREATING CANCER” (PROMETTRE RESEARCH PTY LTD, priority 2020, published 2023).

In assay [1] the test system is HER signalling pathway (pHER2, pAKT, EGR4-S) in HER2+ breast cancer cells. The conditions noted are these: for EGR4-S expression: increasing drug concentrations, FIG. 3.
Protocol: Generation of protein lysates from cells was performed according to a previously published protocol (Price et al., 2005). Equal concentrations of protein lysates were combined with loading buffer (Invitrogen) and sample reducing agent (Invitrogen), denatured for 5 minutes at 95° C. then separated through gel electrophoresis in a 4-to-12% Bis-Tris NuPAGE gel (Invitrogen) with 1×MES buffer (Invitrogen) and antioxidant (Invitrogen). Following separation, the proteins were electrophoretically transferred onto nitrocellulose membranes using the iBlot western detection stack/iBlot dry blotting system (Thermofisher) for seven minutes at 23V. All membranes were then processed at room temperature overnight using the iBlot Western system (Thermofisher) containing primary antibodies, iBind wash solution and horseradish peroxidase-conjugated secondary antibodies. Blots were developed using Clarity Western ECL (Bio-RAD), and images were captured using a Fusion FX imaging machine (Vilber).
The effect of modulators that target the HER signalling pathway (TKIs such as Lapatinib, Gefitinib and Erlotinib) on EGR4-S expression was examined.
The subject of assay [2] is HSP105, HSP70, pHER2, total HER2 and EGR4-S expression. Description: Western blot after treatment with cell stress activating compounds (FIG. 4E). Format: cell-based. As to the method:
The MCF10A cell line was obtained from the A.T.C.C. (Manassas, VA, U.S.A.) and cultured as described previously (Debnath et al., 2003). T47D cells, SkBr3 cells, Hs578T and HEK-293T cells were cultured as described by Nguyen et al (2013). MDA-361, ZR75-1, BT-474, MDA-453, MDA-468, MDA-231, BT549 and MCF7 cells were cultured in Dulbecco's Modified Eagle's medium supplemented with 10% (v/v) fetal bovine serum and 1% (w/v) penicillin/streptomycin. In addition, MCF7 growth media was supplemented with 10 ng/ml insulin. All stable cell lines were generated by retroviral or lentiviral transduction as per Debnath et al. (2003). Viral stocks were generated by transient transfection of appropriate viral packaging vectors into the HEK-293T cell line as described by Lang and colleagues (2012). Drugs/compounds used for treating the cells were purchased from commercial sources, including Lapatinib, Erlotinib, Gefinitib and AUY922 from Sigma, and Sulfurophane from Santa Cruz Biotechnology. HSF1-targeted shRNAmir (microRNA-adapted short hairpin RNA) vectors were constructed as described previously (Lang et al., 2012). EGR4-targeted shRNAmir were purchased from Millenium Science.
(§1) Generation of protein lysates from cells was performed according to a previously published protocol (Price et al., 2005). Equal concentrations of protein lysates were combined with loading buffer (Invitrogen) and sample reducing agent (Invitrogen), denatured for 5 minutes at 95° C. then separated through gel electrophoresis in a 4-to-12% Bis-Tris NuPAGE gel (Invitrogen) with 1×MES buffer (Invitrogen) and antioxidant (Invitrogen). Following separation, the proteins were electrophoretically transferred onto nitrocellulose membranes using the iBlot western detection stack/iBlot dry blotting system (Thermofisher) for seven minutes at 23V. All membranes were then processed at room temperature overnight using the […] (Thermofisher) containing primary antibodies, iBind wash solution and horseradish peroxidase-conjugated secondary antibodies. Blots were developed using Clarity Western ECL (Bio-RAD), and images were captured using a Fusion FX imaging machine (Vilber). All antibodies were purchased from commercial sources and included, anti-HSF1 (catalogue number SPA-901), anti-HSP27 (catalogue number SPA-800) and anti-HSP90a (catalogue number SPA-835) antibodies from Enzo Life Sciences; anti-HSP105/110 (catalogue number Sc-6241) antibody from Santa Cruz Biotechnology; anti-Ha-Ras (catalogue number 05-775) antibody from Merck Millipore; anti-actin (catalogue number MS-1295-P0) and anti-HSP70i (catalogue number MS-482-P0) antibodies from Thermo Scientific; anti-p53 (catalogue number 51-9002046) from BD Pharmingen; anti-pHER2/ErbB2 (catalogue number Ab53290), anti-pAkt (catalogue number MISCGENLAB), anti-pEGFR catalogue number SCZSC-12351), anti-total EGFR catalogue number SCZSC-120) from Abcam, anti-total Akt (catalogue number 9272) and anti-HER2/ErbB2 (catalogue number Ab134182) from Cell Signalling, anti-EGR4 (catalogue number AV38090) (Sigma), anti-EGR4 (catalogue number PA5-50496) (Thermofisher), and anti-EGR4 (catalogue number SC133540) (Santa Cruz).

In assay [3] the test system is EGR4-S in HER2+ breast cancer cells (SKBR3). Description: EGR4-S expression in cells cultured in increasing Lapatinib concentrations over 7 weeks (FIG. 12). It is filed as cell-based. As to the method:
as §1
The cell line was cultured in increasing concentrations of Lapatinib over the course of seven weeks to investigate whether EGR4-S expression would be affected during prolonged treatment with Lapatinib.

A further assay has as its system EGR4-S in HER2+ cells. Description: Lapatinib treatment of HER2+ cells with elevated or lowered HSF1 (FIG. 15A/B). It is filed as cell-based. As to the method:
as §1

Structures are written as SMILES. “Also recorded” adds a separate entry of the source.

As to `C#Cc1cccc(Nc2ncnc3cc(OCCOC)c(OCCOC)cc23)c1` [Erlotinib], in assay [1], the EGR4-S expression result is on record as “regulated”.

Consider `COc1cc2ncnc(Nc3ccc(F)c(Cl)c3)c2cc1OCCCN1CCOCC1` [Gefitinib], for which the EGR4-S expression result in assay [1] was “regulated”.

`C[S+]([O-])CCCCN=C=S` (stereo not shown) [Sulfurophane, Sulforaphane]: the HSP70 expression entry in assay [2] (greater treatment concentrations) was “increased”. In assay [2] (higher concentrations), the EGR4-S expression result is given as “reductions” and the pHER2 expression result is recorded as “reductions”. In addition, in assay [2] (higher concentrations, listed as Sulforaphane), the EGR4-S expression entry is recorded as “reducing EGR4-S expression”.

Regarding `CCNC(=O)c1noc(-c2cc(C(C)C)c(O)cc2O)c1-c1ccc(CN2CCOCC2)cc1` [AUY922], in assay [2] (higher concentrations), the EGR4-S expression result is on record as “decreased; also recorded: reducing EGR4-S expression”, the HSP105 expression result is reported as “increased”, the pHER2 expression entry is “decreased” and the “total HER2 expression” value is on record as “decreased”.

With `CS(=O)(=O)CCNCc1ccc(-c2ccc3ncnc(Nc4ccc(OCc5cccc(F)c5)c(Cl)c4)c3c2)o1` [Lapatinib], the EGR4-S expression entry was “less EGR4-S compared to the control” in assay [3] (SKBR3, week 5, 300 nM Lapatinib, vs control); “returning to control levels” in assay [3] (SKBR3, week 7, 600 nM Lapatinib); “reduced levels of EGR4-S” in assay [3] (after 3 weeks of treatment, vs untreated control); “unchanged” in assay [3] (prolonged treatment, vs untreated control cells); “regulated” in assay [1]; “reduced EGR4-S expression in a dose-dependent manner” with EGR4-S in HER2+ cells (HER2+ cells, dose-dependent, FIG. 15A). In assay [1] (different types of HER2+ breast cancer cells, FIG. 3B), the “EGR4-S expression over time” value is “maintained over time”. The “response of EGR4-S expression” value with EGR4-S in HER2+ cells (HSF1 levels lowered, equivalent doses, FIG. 15B) is reported as “did not respond as readily”. Besides, in the assay with EGR4-S in HER2+ cells (with elevated HSF1, FIG. 15A), the “reduction of EGR4-S expression” value is on record as “more pronounced”.
